The test system of one data set is formalin induced pain response. As to the kind of experiment: Formalin induced pain or paw oedema in mice. In kind it is in vivo. The following applies: 0.1 mg/kg; NMRI female mice, 20 μl 1% formalin into left hind paw. As for the experimental part:
Values for in vivo inhibition of formalin induced pain or oedema for the compounds of the present invention were assessed in mice essentially by the method of Wheeler-Aceto and Cowan (Agents Action 1991, 34, 265-269).
About 20 g NMRI female mice were injected 20 μl 1% formalin into the left hind paw. The animals were then placed on a heated (31° C.) table, and the pain response was scored. After 1 h they were killed and bled. Left and right hind paws were removed and the weight difference between the paws was used as indication of the oedema response of the formalin injected paw.
As for `Cl.O=C(O)C1Cc2ccccc2CN1CCCN1c2ccccc2CCc2ccccc21` (stereo not shown) [Example 9, 2-(3-(10,11-Dihydro-5H-dibenz[b,f]azepin-5-yl)-1-propyl)-1,2,3,4-tetrahydro-3-isoquinolinecarboxylic Acid Hydrochloride], the “% Pain inhibition (inhibition of formalin induced pain response)” value (“% Pain inhibition” below) was determined as 29%.

As to `Cl.O=C(O)C1CCCCN1CCCN1c2ccccc2CCc2ccccc21` (stereo not shown) [Example 5, 1-(3-(10,11-Dihydro-5H-dibenz[b,f]azepin-5-yl)-1-propyl)-2-piperidinecarboxylic Acid Hydrochloride], the “% Pain inhibition” value is listed as 36%.

On to `Cl.OC1(c2ccc(Cl)cc2)CCN(CCCN2c3ccccc3CCc3ccccc32)CC1` [Example 2, 4-(4-Chlorophenyl)-1-(3-(10,11-dihydro-5H-dibenz[b,f]azepin-5-yl)-1-propyl)piperidin-4-ol Hydrochloride], for which the “% Pain inhibition” value was 13%.

Regarding `Cl.O=C(O)C1CN(CCCN2c3ccccc3CCc3ccccc32)CCO1` (stereo not shown) [Example 8, 4-(3-(10,11-Dihydro-5H-dibenz[b,f]azepin-5-yl)-1-propyl)-2-morpholinecarboxylic Acid Hydrochloride], the “% Pain inhibition” value was determined as 34%.

Consider `Cl.NC(=O)C1CCCN(CCCN2c3ccccc3CCc3ccccc32)C1` (stereo not shown) [Example 4, 1-(3-(10,11-Dihydro-5H-dibenz[b,f]azepin-5-yl)-1-propyl)-3-piperidinecarboxamide Hydrochloride], for which the “% Pain inhibition” value is given as 47%.

Tested on in a further data set: not given
Assay: not given
Conditions: not given
For the compound `Cl.O=C(O)C1CN(CCCN2c3ccccc3CCc3ccccc32)CCO1` (stereo not shown) (hydrate or solvate) [Example 8, 4-(3-(10,11-Dihydro-5H-dibenz[b,f]azepin-5-yl)-1-propyl)-2-morpholinecarboxylic Acid Hydrochloride], the melting point lay in the range of 196 to 199 °C.

For `Cl.NC(=O)[C@@H]1CCCN(CCC=C2c3ccccc3CCc3ccccc32)C1`, the melting point is > 250 °C.

In turn, `Cl.O=C(O)C1Cc2ccccc2CN1CCCN1c2ccccc2CCc2ccccc21` (stereo not shown) (hydrate or solvate) [Example 9, 2-(3-(10,11-Dihydro-5H-dibenz[b,f]azepin-5-yl)-1-propyl)-1,2,3,4-tetrahydro-3-isoquinolinecarboxylic Acid Hydrochloride] registered a melting point of 205 to 208 °C.

Compound `Cl.O=C(O)C1CCN(CCCN2c3ccc(Br)cc3CCc3cc(Br)ccc32)CC1` (hydrate or solvate) showed a melting point of 165 to 166 °C.

Compound `O=C([O-])C1CN(CCCN2c3ccccc3CCc3ccccc32)CCN1.[K+]` (stereo not shown) (hydrate or solvate) had a melting point of 151 to 155 °C.

`Cl.O=C(O)C1CCN(CCCN2c3cc(Cl)ccc3CCc3ccc(Cl)cc32)CC1` yielded a melting point of 237 to 239 °C.

On to `Cc1ccc2c(c1)C(=CCCN1CCC(C(=O)O)CC1)c1ccccc1CC2.Cl`, for which the melting point is > 250 °C.

`Cl.O=C(O)C1CCCCN1CCCN1c2ccccc2CCc2ccccc21` (stereo not shown) (hydrate or solvate) [Example 5, 1-(3-(10,11-Dihydro-5H-dibenz[b,f]azepin-5-yl)-1-propyl)-2-piperidinecarboxylic Acid Hydrochloride] came in with a melting point of 122 to 126 °C.

On to `CC1C(C(=O)O)CCCN1CCCN1c2ccccc2CCc2ccccc21.Cl` (stereo not shown) (hydrate or solvate), for which the melting point is 169 to 170 °C.

`Cl.O=C(O)C1CCN(CCC=C2c3ccccc3CCc3ccccc32)CC1`: the melting point lay in the range of 224 to 226 °C.

On to `Cc1ccc2c(c1)N(CCCN1CCC(C(=O)O)CC1)c1cc(C)ccc1CC2` (hydrate or solvate) [Example 24, 1-(3-(3,7-Dimethyl-10,11-dihydro-5H-dibenz[b,f]azepin-5-yl)-1-propyl)-4-piperidinecarboxylic Acid], for which the melting point was 207 to 209 °C.

Compound `Cl.O=C(O)C1CCN(CCCN2c3ccccc3CCc3ccccc32)CC1` showed a melting point of 195 to 197 °C.

`Cl.O=C(O)CC1CCN(CCCN2c3ccccc3CCc3ccccc32)CC1` showed a melting point of 185 to 188 °C.

In turn, `Cl.O=C(O)C1CCN(CCCN2c3ccccc3Oc3ccccc32)CC1` had a melting point of 196 to 198 °C.

As to `Cl.OCC1CCCN(CCCN2c3ccccc3CCc3ccccc32)C1` (stereo not shown), the melting point lay within 145 to 147 °C.

On to `Cl.O=C(O)CC1CCCN(CCCN2c3ccccc3CCc3ccccc32)C1` (stereo not shown), for which the melting point lay within 233 to 235 °C.

On to `CN(C)c1ccc2c(c1)N(CCCN1CCC(C(=O)O)CC1)c1ccccc1CC2` (hydrate or solvate) [Example 25, 1-(3-(3-Dimethylamino-10,11-dihydro-5H-dibenz[b,f]azepin-5-yl)-1-propyl)-4-piperidinecarboxylic Acid], for which the melting point is 198 to 202 °C.

The record behind these values is US6613791B1, “N-substituted azaheterocyclic carboxylic acids and their use” (Novo Nordisk A/S, priority 1994, dated 2003).
